Results published in patent US12208108B2, “Drug targets of delayed aging and human brain diseases” (Texas Tech University System, priority 2016, dated 2025).

Legend:
SHSY5Y cells [1] = test: Immunoblotting analysis of mitochondrial, synaptic proteins and Aβ; type: cell-based, Human
From the text: Immunoblotting analysis. To determine the effects of Aβ on mitochondrial proteins and the useful effects of DDQ at the protein level, the inventors quantified mitochondrial proteins in five independent treatments of cells with Aβ, DDQ, Aβ+DDQ and DDQ+Aβ.
DDQ reduces Aβ and Drp1 levels. To determine whether DDQ reduces Aβ and Drp1 levels, the inventors conducted immunoblotting analysis, in cells treated with DDQ, Aβ+DDQ and DDQ+Aβ.
FIG. 3 illustrates the experimental strategy of the cell culture work and including treatments. The cells were grown in a medium (1:1 DMEM and F12, 10% FBS, lx penicillin, and streptomycin) at 37° C. in a humified incubator with a 5% CO2 environment. After seeding were allowed to grow for 24-48 hrs or until 80% confluence in six-well plates and used for experiments. The inventors used five different groups of cells—(1) untreated SHSY5Y cells; (2) SHSY5Y cells treated with DDQ (250 nM final concentration) for 24 hrs; (3) SHSY5Y cells incubated with Aβ peptide 1-42 (20 uM final concentration) for 6 hrs; (4) SHSY5Y cells treated Aβ for 6 hrs+DDQ for 24 hrs and (5) SHSY5Y cells treated DDQ for 24 hrs and Aβ for 6 hrs. Half a million SHSY5Y cells were suspended per well into six-well plates. The inventors used Aβ peptide 1-42 and DDQ 250 nM in the experiments. After treatments, the inventors harvested cells, conducted experiments to measure the levels mRNA using Sybr-Green based real-time RT-PCR, proteins using immunoblotting and immunofluorescence analysis and cell viability using MTT assay. The inventors counted the number of mitochondria by electron microscopy.

[2] = target: T1, interaction of Aβ with Drp1 (Homo sapiens, UniProt O00429); test: Co-immunoprecipitation of Aβ and Drp1 in SHSY5Y cells; type: cell-based
T1 construct: SHSY5Y cells incubated with Aβ peptide 1-42 (20 uM final concentration); Anaspec (Aβ 1-42 peptide); host or cells: SHSY5Y human neuroblastoma cells
T1 sequence (O00429 whole entry): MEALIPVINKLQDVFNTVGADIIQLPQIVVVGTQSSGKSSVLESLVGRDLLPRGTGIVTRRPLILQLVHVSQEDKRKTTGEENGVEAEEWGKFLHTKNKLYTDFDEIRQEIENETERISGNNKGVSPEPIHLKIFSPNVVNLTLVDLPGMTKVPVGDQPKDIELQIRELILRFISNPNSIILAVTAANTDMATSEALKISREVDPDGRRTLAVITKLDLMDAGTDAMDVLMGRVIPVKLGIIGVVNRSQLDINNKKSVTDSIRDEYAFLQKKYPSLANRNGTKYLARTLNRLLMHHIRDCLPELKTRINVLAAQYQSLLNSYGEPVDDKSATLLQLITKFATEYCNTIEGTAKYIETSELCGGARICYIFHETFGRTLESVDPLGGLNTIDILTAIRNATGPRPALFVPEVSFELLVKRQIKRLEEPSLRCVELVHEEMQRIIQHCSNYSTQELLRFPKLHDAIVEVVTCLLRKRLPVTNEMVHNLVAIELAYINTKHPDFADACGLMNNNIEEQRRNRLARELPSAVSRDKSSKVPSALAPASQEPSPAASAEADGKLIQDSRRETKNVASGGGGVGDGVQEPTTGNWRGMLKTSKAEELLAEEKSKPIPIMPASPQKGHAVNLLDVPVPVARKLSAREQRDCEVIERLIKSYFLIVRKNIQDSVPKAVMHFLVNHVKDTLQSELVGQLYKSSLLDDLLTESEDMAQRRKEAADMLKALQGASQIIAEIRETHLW
Procedure: Co-immunoprecipitation and immunoblotting analysis using DDQ treated SHSY5Y cells+Aβ. To determine whether DDQ reduces the interaction of Aβ with Drp1 in Aβ incubated cells, the inventors performed co-immunoprecipitation analysis using the Drp1 antibody, and immunoblotting analysis using Aβ recognizing 6E10 antibody and protein lysates of DDQ pre-treated, DDQ post-treated and Aβ incubated cells.
SHSY5Y cells, mutant APPSwe/Ind cells and co-immunoprecipitation analysis. SHSY5Y cells: To determine whether Aβ interact with Drp1, the inventors used protein lysates from Aβ incubated (DDQ pre-treated, post-treated and untreated) SHSY5Y cells.
The inventors performed co-immunoprecipitation (co-IP) assays using the Dynabeads Kit for Immunoprecipitation (Invitrogen). Briefly, 50 μL of Dynabeads containing protein G was incubated with 10 μg 6E10 or 10 μg of the Drp1 antibodies (both mono- and polyclonal antibodies; Santa Cruz), with rotation, for 1 h at room temperature. The inventors used all the reagents and buffers provided in the kit. Details of antibodies used for co-IP and western blotting are given Table 5. The Dynabeads-Aβ complex was washed three times with a washing buffer and was then incubated overnight with 400 μg of protein at 4° C., with rotation. […]

SHSY5Y cells [3] = test: Transmission electron microscopy, mitochondrial number and length; type: cell-based, Human
From the text: Transmission electron microscopy. To determine the effects of DDQ on mitochondrial number and morphology, and any rescual effects of DDQ on mitochondria in the untreated and Aβ treated cells, the inventors used TEM on untreated, DDQ, Aβ+DDQ and DDQ+Aβ, treated SHSY5Y cells.
Transmission electron microscopy. To determine the effects of DDQ on the numbers of mitochondria and any rescue effects of DDQ on mitochondria in the mutant SHSY5Y neurons, the inventors used TEM on untreated and treated SHSY5Y cells (as shown in FIG. 3). [Batches 1-5]. All SHSY5Y cells batches 1-5 were fixed in […] sodium cacodylate (pH 7.2), 2.5% glutaraldehyde, 1.6% paraformaldehyde, 0.064% picric acid and 0.1% ruthenium red. They were gently washed and post-fixed for 1 h in 1% osmium tetroxide plus […] potassium ferricyanide, in 100 mm sodium cacodylate, pH 7.2. After a thorough rinsing in water, the SHSY5Y cells were dehydrated, infiltrated overnight in 1:1 acetone:Epon 812 and infiltrated for 1 h with 100% Epon 812 resin. They were then embedded in the resin. After polymerization, 60 to 80 nm thin sections were cut on a Reichert ultramicrotome and stained for 5 min in lead citrate. They were rinsed and post-stained for 30 min in uranyl acetate and then were rinsed again and dried. Electron microscopy was performed at 60 kV on a Philips Morgagne TEM equipped with a CCD, and images were collected at magnifications of ×1000-37 000. The numbers of mitochondria were counted in the SHSY5Y cells batches 1-5, and statistical significance was determined, using one-way ANOVA.

[4] = Aβ + DDQ (Aβ1-42 20 μM 6 hrs, then DDQ 24 hrs) vs untreated cells
[5] = Aβ + DDQ (Aβ1-42 6 hrs, then DDQ 24 hrs) vs Aβ treated cells
[6] = DDQ 250 nM 24 hrs vs untreated cells
[7] = DDQ + Aβ (DDQ 24 hrs, then Aβ1-42 6 hrs) vs Aβ treated cells
[8] = DDQ + Aβ (DDQ 24 hrs, then Aβ1-42 6 hrs) vs untreated cells
[9] = DDQ post-treated (Aβ + DDQ) vs cells treated with Aβ alone
[10] = DDQ-pre treated (DDQ + Aβ) vs cells treated with Aβ alone

With CCOP(=O)(OCC)C(NCCc1ccc(O)c(O)c1)c1ccnc2ccccc12 (centres unmarked) [DDQ, diethyl(3,4-dihydroxyphenethylamine)(quinolin-4-yl)methylphosphonate] the Drp1 protein level (SHSY5Y cells [1]; [4]) was “reduced”, the Fis1 protein level (SHSY5Y cells [1]; [4]) was “reduced” and the Mfn1 protein level (SHSY5Y cells [1]; [4]) was “significantly increased”. The PSD95 protein level (SHSY5Y cells [1]; [4]) was “significantly increased”, the synaptophysin protein level (SHSY5Y cells [1]; [4]) was “significantly increased” and the Drp1 protein level (SHSY5Y cells [1]; [5]) was “significantly reduced levels”. For the same compound, the Mfn1 protein level (SHSY5Y cells [1]; [5]) was “increased”, the Mfn2 protein level (SHSY5Y cells [1]; [5]) was “increased” and the Nrf1 protein level (SHSY5Y cells [1]; [5]) was “increased”. For the same compound, the Nrf2 protein level (SHSY5Y cells [1]; [5]) was “increased”, the PSD95 protein level (SHSY5Y cells [1]; [5]) was “increased” and the TFAM protein level (SHSY5Y cells [1]; [5]) was “increased”. The synaptophysin protein level (SHSY5Y cells [1]; [5]) was “increased”, the “4 kDa Aβ levels” value (SHSY5Y cells [1]; Aβ + DDQ (Aβ1-42 6 hrs, then DDQ 24 hrs) vs cells treated with Aβ alone) was “reduced levels” and the Drp1 protein level (SHSY5Y cells [1]; [6]) was “significantly reduced”. For the same compound, the Fis1 protein level (SHSY5Y cells [1]; [6]) was “significantly reduced”, the Mfn2 protein level (SHSY5Y cells [1]; [6]) was “significantly increased” and the “Mitochondrial biogenesis protein levels” value (SHSY5Y cells [1]; [6]) was “significantly increased”. The Drp1 protein level (SHSY5Y cells [1]; [7]) was “significantly reduced levels”, the Fis1 protein level (SHSY5Y cells [1]; [7]) was “significantly reduced levels” and the Mfn1 protein level (SHSY5Y cells [1]; [7]) was “increased”. For the same compound, the Mfn2 protein level (SHSY5Y cells [1]; [7]) was “increased”, the Nrf1 protein level (SHSY5Y cells [1]; [7]) was “significantly increased levels” and the Nrf2 protein level (SHSY5Y cells [1]; [7]) was “significantly increased levels”. For the same compound, the PSD95 protein level (SHSY5Y cells [1]; [7]) was “increased”, the TFAM protein level (SHSY5Y cells [1]; [7]) was “significantly increased levels” and the synaptophysin protein level (SHSY5Y cells [1]; [7]) was “increased”. For the same compound, the “4 kDa Aβ levels” value (SHSY5Y cells [1]; DDQ + Aβ (DDQ 24 hrs, then Aβ1-42 6 hrs) vs cells treated with Aβ alone) was “reduced levels”, the Drp1 protein level (SHSY5Y cells [1]; [8]) was “Decreased levels” and the “interaction between Aβ and Drp1” value ([2]; DDQ post-treated (Aβ + DDQ) vs Aβ incubated cells) was “reduced interaction”. The “interaction between Aβ and Drp1” value ([2]; DDQ pre-treated (DDQ + Aβ) vs Aβ incubated cells) was “reduced interaction”, the mitochondrial length (SHSY5Y cells [3]; [4]) was “not significantly changed” and the number of mitochondria (SHSY5Y cells [3]; [4]) was “approximately equal number”. The mitochondrial length (SHSY5Y cells [3]; [6]) was “significantly increased”, the number of mitochondria (SHSY5Y cells [3]; [6]) was “reduced” and the mitochondrial length (SHSY5Y cells [3]; [8]) was “not significantly changed”. For the same compound, the number of mitochondria (SHSY5Y cells [3]; [8]) was “approximately equal number”, the mitochondrial length (SHSY5Y cells [3]; [9]) was “significantly increased” and the number of mitochondria (SHSY5Y cells [3]; [9]) was “significantly reduced”. For the same compound, the mitochondrial length (SHSY5Y cells [3]; [10]) was “significantly increased” and the number of mitochondria (SHSY5Y cells [3]; [10]) was “significantly reduced”.
